Test results taken from PMC6151961 (Journal of Enzyme Inhibition and Medicinal Chemistry, 2018).
Read-outs that look alike come from different tables or passages of the source.

Tests used:
[1] = target: CA IX (Homo sapiens, UniProt Q16790); experiment: Stopped-flow CA-catalysed CO2 hydration inhibition assay; type: biochemical; conditions: for Ki: sulphonamides with IDs C...
[2] = RP-LC chromatographic lipophilicity (logkw); type: physicochemical; conditions: chromatographic lipophilicity from gradient RP-LC, Luna RP-C18, water/acetonitrile with 0.1% formic acid, 30 °C

| SMILES | logKi(CA IX) ([1]; logarithm of Ki (Ki in nM), mean of three determinations) | Ki ([1]; read-out: Ki) [nM] | Ki ([1]; read-out: pKi (exp.) (converted)) [nM] | logkw [2] |
| --- | --- | --- | --- | --- |
| Cc1cc(S(=O)(=O)NC(=N)NCc2ccc(S(N)(=O)=O)cc2)c(SCc2ccccc2)cc1Cl [C98] | 1.130 | 23.1 | 23.1 | 3.920 |
| Cc1cc(S(=O)(=O)NC(=N)Nc2ccccc2S(N)(=O)=O)c(SCc2cc(=O)[nH]c3ccccc23)cc1Cl [C117] | – | – | – | 3.870 |
| Cc1cc(S(=O)(=O)NC(=N)NNc2ccc(S(N)(=O)=O)cc2)c(SCc2cc(=O)[nH]c3ccccc23)cc1Cl [C118] | – | – | – | 3.770 |
| Cc1cc(S(=O)(=O)NC(=N)Nc2ccc(S(N)(=O)=O)cc2)c(SCc2cc3c(cc2Cl)OCO3)cc1Cl [C120] | – | – | – | 4.070 |
| Cc1cc(S(=O)(=O)NC(=N)Nc2cccc(S(N)(=O)=O)c2)c(SCc2cc3c(cc2Cl)OCO3)cc1Cl [C121] | – | – | – | 3.990 |
| Cc1cc(S(=O)(=O)NC(=N)NNc2ccc(S(N)(=O)=O)cc2)c(SCc2cc3c(cc2Cl)OCO3)cc1Cl [C122] | – | – | – | 3.690 |
| Cc1cc(S(=O)(=O)NC(=N)NCc2ccc(S(N)(=O)=O)cc2)c(SCc2cc3c(cc2Cl)OCO3)cc1Cl [C123] | – | – | – | 3.850 |
